Measurements: patent US20250179047A1, “5-[7-(3,4-DIHYDRO-1H-ISOQUINOLINE-2-CARBONYL)-1,2,3,4 TETRAHYDROISOQUINOLIN-6-YL]-1H-PYRROLE-3-CARBOXAMIDE DERIVATIVES, PHARMACEUTICAL COMPOSITIONS CONTAINING THEM AND THEIR USES AS PRO-APOPTOTIC AGENTS” (LES LABORATOIRES SERVIER, priority 2022, published 2025)

What was measured:
KMS-12-PE Bcl-2 WT = assay: In vitro cytotoxicity CellTiter-Glo 48 h, KMS-12-PE Bcl-2 WT; format: cell-based; conditions: Homo sapiens, KMS-12-PE, C50 = concentration needed to reach 50% of the cellular viability
How it was run: (§1)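 Viability measured by CellTiter-Glo luminescence after 48 h compound exposure (11-point curve, 37 °C, 5% CO2). Cells: KMS-12-PE transduced with wild-type or G101V-mutant Bcl-2, FACS-sorted for TagRFP. Reported C50 = concentration reaching 50% cellular viability.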

BCL2 G101V [1] = target: BCL2 G101V (Homo sapiens, UniProt P10415, G101V); assay: TR-FRET competitive binding assay, BCL2 G101V; conditions: BCL2 G101V; Ki determined from IC50; read-out: TR_FRET EKI_Bcl2 G101V
How it was run: (§2)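 Competitive TR-FRET displacement of fluorescein-PUMA peptide (2 or 20 nM) from 0.5 nM terbium-labelled N-terminal Halo-fusion BCL2 (1-207, wild type or mutant) or BCLXL (2-196), expressed in E. coli. Buffer 50 mM Hepes pH 7.5, 150 mM NaCl, 5% DMSO; 2 h at 23°C. 520/495 nm ratio fitted over 11 points for IC50, converted to Ki.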

BCL2 G101V [2] = assay: TR-FRET competitive binding assay, BCL2 G101V; design: species or system human; conditions: ratio Ki BCL2 G101V / Ki BCL2 WT
How it was run: as §2

BCL2 WT = BCL2 WT (Homo sapiens (Human), UniProt P10415); assay: TR-FRET competitive binding assay, BCL2 WT; conditions: Ki determined from IC50, read-out: TR_FRET EKI_Bcl2 WT
How it was run: as §2

BCL2 D103Y = BCL2 D103Y (Homo sapiens, UniProt P10415, D103Y); assay: TR-FRET competitive binding assay, BCL2 D103Y; conditions: Ki determined from IC50, read-out: TR_FRET EKI_Bcl2 D103Y
How it was run: as §2

BCLXL WT = BCLXL WT (Homo sapiens (Human), UniProt Q07817); assay: TR-FRET competitive binding assay, BCLXL WT; conditions: for Ki: BCLXL WT, Ki determined from IC50, read-out: TR_FRET EKI BclxL; for TR_FRET EKI BCLxL/WT selectivty ratio: ratio Ki BCLxL / Ki BCL2 WT
BCLXL WT, sequence (Q07817 other isoform, or with tags, fused parts or gaps): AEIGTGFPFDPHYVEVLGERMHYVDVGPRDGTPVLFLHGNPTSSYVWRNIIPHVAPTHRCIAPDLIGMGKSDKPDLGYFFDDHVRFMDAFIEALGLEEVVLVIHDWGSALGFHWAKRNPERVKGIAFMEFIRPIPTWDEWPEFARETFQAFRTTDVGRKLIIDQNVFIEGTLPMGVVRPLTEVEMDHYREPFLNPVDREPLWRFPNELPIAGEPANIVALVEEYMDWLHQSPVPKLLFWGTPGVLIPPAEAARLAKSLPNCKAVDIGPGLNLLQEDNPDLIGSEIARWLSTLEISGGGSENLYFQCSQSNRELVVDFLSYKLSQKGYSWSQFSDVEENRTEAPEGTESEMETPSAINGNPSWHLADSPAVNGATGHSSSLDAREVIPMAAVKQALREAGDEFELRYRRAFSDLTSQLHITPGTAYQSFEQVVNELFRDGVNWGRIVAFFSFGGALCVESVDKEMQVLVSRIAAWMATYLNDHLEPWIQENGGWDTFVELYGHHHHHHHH
How it was run: as §2

KMS-12-PE Bcl-2 G101V = assay: In vitro cytotoxicity CellTiter-Glo 48 h, KMS-12-PE Bcl-2 G101V; format: cell-based; conditions: for Ratio (G101V/WT): C50 KMS-12-PE Bcl-2 G101V over C50 KMS-12-PE Bcl-2 WT; for IC50: Homo sapiens, KMS-12-PE, 48 h, CellTiter-Glo, C50 = concentration needed to reach 50% of the cellular viability
How it was run: as §1

SMILES	IC50 (KMS-12-PE Bcl-2 WT)	Ki (BCL2 G101V [1])	TR_FRET EKI G101V/WT selectivty ratio (BCL2 G101V [2])	Ki (BCL2 WT)	Ki (BCL2 D103Y)	Ki (BCLXL WT)	TR_FRET EKI BCLxL/WT selectivty ratio (BCLXL WT)	Ratio (G101V/WT) (KMS-12-PE Bcl-2 G101V)	IC50 (KMS-12-PE Bcl-2 G101V)
Cc1c(C(=O)N(c2ccc(O)cc2)c2cnn3c2CCCC3)cc(-c2cc3c(cc2C(=O)N2Cc4ccccc4C[C@H]2C)CN(C(=O)Cc2ccc(OCCN4CCOCC4)cc2)CC3)n1C [Example 147, N-(4-hydroxyphenyl)-1,2-dimethyl-5-(7-{[(3R)-3-methyl-3,4-dihydro-1H-isoquinolin-2-yl]carbonyl}-2-(2-{4-[2-(morpholin-4-yl)ethoxy]phenyl}acetyl)-3,4-dihydro-1H-isoquinolin-6-yl)-N-{4H,5H,6H,7H-pyrazolo[1,5-a]pyridin-3-yl}pyrrole-3-carboxamide]	0.0304 µM	0.3 nM	5.9	0.06 nM	0.14 nM	1 nM	17.2	6.9408	0.211 µM
Cc1c(N(C(=O)c2cc(-c3cc4c(cc3C(=O)N3Cc5ccccc5C[C@H]3CN3CCCCC3)CN(C(=O)Cc3ccc(COCC5CCOCC5)cc3)CC4)n(C)c2C)c2ccc(O)cc2)cc(C#N)n1C [Example 149, N-(5-cyano-1,2-dimethyl-1H-pyrrol-3-yl)-N-(4-hydroxyphenyl)-1,2-dimethyl-5-{2-[2-(4-{[(oxan-4-yl)methoxy]methyl}phenyl)acetyl]-7-[(3S)-3-[(piperidin-1-yl)methyl]-1,2,3,4-tetrahydroisoquinoline-2-carbonyl]-1,2,3,4-tetrahydroisoquinolin-6-yl}-1H-pyrrole-3-carboxamide]	0.0239 µM	1.1 nM	11.2	0.1 nM	0.23 nM	1.9 nM	19.4	10.921	0.261 µM
Cc1c(N(C(=O)c2cc(-c3cc4c(cc3C(=O)N3Cc5ccccc5C[C@H]3CN3CCCCC3)CN(C(=O)Cc3ccc(OCCN5CCO[C@@H](C)C5)cc3)CC4)n(C)c2C)c2ccc(O)cc2)cc(C#N)n1C [Example 150, N-(5-cyano-1,2-dimethyl-1H-pyrrol-3-yl)-N-(4-hydroxyphenyl)-1,2-dimethyl-5-[2-(2-{4-[2-((2S)-2-methylmorpholin-4-yl)ethoxy]phenyl}acetyl)-7-[(3S)-3-[(piperidin-1-yl)methyl]-1,2,3,4-tetrahydroisoquinoline-2-carbonyl]-1,2,3,4-tetrahydroisoquinolin-6-yl]-1H-pyrrole-3-carboxamide]	0.011 µM	0.2 nM	6.2	0.04 nM	0.08 nM	2.6 nM	70.3	5.2636	0.0579 µM
Cc1c(N(C(=O)c2cc(-c3cc4c(cc3C(=O)N3Cc5ccccc5C[C@H]3CN3CCCCC3)CN(C(=O)Cc3ccc(OCCN5CCO[C@H](C)C5)cc3)CC4)n(C)c2C)c2ccc(O)cc2)cc(C#N)n1C [Example 151, N-(5-cyano-1,2-dimethyl-1H-pyrrol-3-yl)-N-(4-hydroxyphenyl)-1,2-dimethyl-5-[2-(2-{4-[2-((2R)-2-methylmorpholin-4-yl)ethoxy]phenyl}acetyl)-7-[(3S)-3-[(piperidin-1-yl)methyl]-1,2,3,4-tetrahydroisoquinoline-2-carbonyl]-1,2,3,4-tetrahydroisoquinolin-6-yl]-1H-pyrrole-3-carboxamide]	0.0105 µM	0.3 nM	6.4	0.05 nM	0.1 nM	2.7 nM	57.4	6.0476	0.0635 µM
Cc1c(N(C(=O)c2cc(-c3cc4c(cc3C(=O)N3Cc5ccccc5C[C@H]3CN3CCC[C@H](C)C3)CN(C(=O)Cc3ccc(OCCN5CCOCC5)cc3)CC4)n(C)c2C)c2ccc(O)cc2)cc(C#N)n1C [Example 153, N-(5-cyano-1,2-dimethyl-pyrrol-3-yl)-N-(4-hydroxyphenyl)-1,2-dimethyl-5-[7-[(3S)-3-[[(3S)-3-methyl-1-piperidyl]methyl]-3,4-dihydro-1H-isoquinoline-2-carbonyl]-2-[2-[4-(2-morpholinoethoxy)phenyl]acetyl]-3,4-dihydro-1H-isoquinolin-6-yl]pyrrole-3-carboxamide]	0.0095 µM	0.4 nM	3.5	0.13 nM	0.38 nM	5.2 nM	41.6	5.3741	0.051 µM
Cc1c(N(C(=O)c2cc(-c3cc4c(cc3C(=O)N3Cc5ccccc5C[C@H]3CN3CCCC3)CN(C(=O)Cc3ccc(OCCN5CCN(CC(F)F)CC5)cc3)CC4)n(C)c2C)c2ccc(O)cc2)cc(C#N)n1C [Example 154, N-(5-cyano-1,2-dimethylpyrrol-3-yl)-5-{2-[2-(4-{2-[4-(2,2-difluoroethyl)piperazin-1-yl]ethoxy}phenyl)acetyl]-7-{[(3S)-3-(pyrrolidin-1-ylmethyl)-3,4-dihydro-1H-isoquinolin-2-yl]carbonyl}-3,4-dihydro-1H-isoquinolin-6-yl}-N-(4-hydroxyphenyl)-1,2-dimethylpyrrole-3-carboxamide]	0.067 µM	0.3 nM	8.4	0.04 nM	0.14 nM	4.1 nM	110.8	3.9552	0.265 µM
CCN(C[C@@H]1Cc2ccccc2CN1C(=O)c1cc2c(cc1-c1cc(C(=O)N(c3ccc(O)cc3)c3cc(C#N)n(C)c3C)c(C)n1C)CCN(C(=O)Cc1ccc(OCCN3CCOCC3)cc1F)C2)C(C)C [Example 155, N-(5-cyano-1,2-dimethylpyrrol-3-yl)-5-(7-{[(3S)-3-{[ethyl(isopropyl)amino]methyl}-3,4-dihydro-1H-isoquinolin-2-yl]carbonyl}-2-(2-{2-fluoro-4-[2-(morpholin-4-yl)ethoxy]phenyl}acetyl)-3,4-dihydro-1H-isoquinolin-6-yl)-N-(4-hydroxyphenyl)-1,2-dimethylpyrrole-3-carboxamide]	0.0105 µM	0.4 nM	8.8	0.04 nM	0.11 nM	1.7 nM	39.5	8.0857	0.0849 µM
Cc1c(N(C(=O)c2cc(-c3cc4c(cc3C(=O)N3Cc5ccccc5C[C@H]3CN3CC[C@@H](C)C3)CN(C(=O)Cc3ccc(OCCN5CCOCC5)cc3F)CC4)n(C)c2C)c2ccc(O)cc2)cc(C#N)n1C [Example 156, N-(5-cyano-1,2-dimethylpyrrol-3-yl)-5-[2-(2-{2-fluoro-4-[2-(morpholin-4-yl)ethoxy]phenyl}acetyl)-7-{[(3S)-3-{[(3R)-3-methylpyrrolidin-1-yl]methyl}-3,4-dihydro-1H-isoquinolin-2-yl]carbonyl}-3,4-dihydro-1H-isoquinolin-6-yl]-N-(4-hydroxyphenyl)-1,2-dimethylpyrrole-3-carboxamide]	0.0154 µM	0.2 nM	4.0	0.05 nM	0.1 nM	2.7 nM	50.9	5.2662	0.0811 µM
Cc1c(N(C(=O)c2cc(-c3cc4c(cc3C(=O)N3Cc5ccccc5C[C@H]3CN3CC[C@H](C)C3)CN(C(=O)Cc3ccc(OCCN5CCOCC5)cc3F)CC4)n(C)c2C)c2ccc(O)cc2)cc(C#N)n1C [Example 157, N-(5-cyano-1,2-dimethylpyrrol-3-yl)-5-[2-(2-{2-fluoro-4-[2-(morpholin-4-yl)ethoxy]phenyl}acetyl)-7-{[(3S)-3-{[(3S)-3-methylpyrrolidin-1-yl]methyl}-3,4-dihydro-1H-isoquinolin-2-yl]carbonyl}-3,4-dihydro-1H-isoquinolin-6-yl]-N-(4-hydroxyphenyl)-1,2-dimethylpyrrole-3-carboxamide]	0.0171 µM	0.3 nM	7.7	0.04 nM	0.09 nM	2 nM	45.5	5.5848	0.0955 µM
Cc1c(C(=O)N(c2ccc(O)cc2)c2cc(C#N)n(C(F)F)c2C)cc(-c2cc3c(cc2C(=O)N2Cc4ccccc4C[C@H]2CN2CCCCC2)CN(C(=O)Cc2ccc(OCCN4CCC(F)CC4)cc2F)CC3)n1C [Example 158]	0.0068 µM	0.9 nM	9.4	0.1 nM	0.47 nM	5.4 nM	54.0	8.0412	0.0546 µM
